We go through seven compounds from patent US9587471B2, “Controlling bioavailability of nutrient additions in subsurface formations” (E I DU PONT DE NEMOURS AND COMPANY, priority 2008, dated 2017).

Molecules are shown by their SMILES. Bounds are passed on as bounds.

Test [1] relates to Pseudomonas stutzeri strain LH4:15, ATCC PTA-8823. Nature of the test: Aerobic growth response (turbidity) to varying concentrations of potential microbial nutrients. On growth response (turbidity): key: − = no turbidity; + = slight turbidity; ++ = moderate to heavy turbidity. It counts as cell-based. The protocol:
Typically cells were grown at a temperature in the range of about 25° C. to about 40° C. in an appropriate medium.
Additional potential microbial nutrients were added at various concentrations as outlined in Table 1. Growth was monitored visually with positive growth indicated by moderate to heavy turbidity.

In test [2] the test system is Pseudomonas stutzeri strain LH4:15 (ATCC PTA-8823). Nature of the test: Anaerobic growth and survival: biocidal versus biostatic inhibition. It counts as cell-based. Particulars: for change in Log cell number: day 0 vs day 7, anaerobic; for Final anaerobic vial OD: starting OD600 = 0.05. The protocol: In this invention, the anaerobic growth and survival was tested in 20 ml crimp-capped anaerobic vials, using a complete nutrient medium of the following composition: Na2HPO4.7H2O, 1.4 g/L, KH2PO4, 0.69 g/L, NH4Cl, 0.5 g/L, MgSO4.7H2O, 0.1/L g, SL-10 trace metals, 10 ml, NaCl, 7.5 g/L, NaHCO3, 7.2 g/L, sodium nitrate, 12 g/L, Na lactate, 7 g/L, yeast extract, 10 mg/L, pH 7.3-7.8.
The anaerobic growth and survival was tested as outlined above. […] Vials were inoculated using an overnight aerobic culture of Pseudomonas stutzeri strain LH4:15 (ATCC PTA-8823) in Luria Bertani medium (LB, Mediatech Inc., Herndon, Va.,) at a final OD600 of 0.05. Within 2 hours of inoculation, serial dilutions from each treatment vial were made into aerobic LB medium to determine the cell numbers at Day 0. After approximately 24 hours cell numbers were estimated by noting the highest positive dilution based on the presence or absence of turbidity in dilutions of 10^−1 to 10^−11 in the serial dilution plates. Cell numbers on Day 0 and Day 7 were measured to obtain a survival estimate during inhibitor exposure.

[3] abbreviates: 0.05 g/L, 24 hours of incubation.
[4] abbreviates: 0.05 g/L, 48 hours of incubation.
Where [5] appears, read: 0.05 g/L, 120 hours of incubation.
The mark [6] stands for this setting: 0.5 g/L, 24 hours of incubation.
[7] abbreviates: 0.5 g/L, 48 hours of incubation.
Where [8] appears, read: 0.5 g/L, 120 hours of incubation.
Where [9] appears, read: 10 g/L, 120 hours of incubation.
[10] abbreviates: 20 g/L, 120 hours of incubation.
Where [11] appears, read: 50 g/L, 120 hours of incubation.
The mark [12] stands for this setting: 100 g/L, 24 hours of incubation.
Setting [13] is: 100 g/L, 48 hours of incubation.
Where [14] appears, read: 100 g/L, 120 hours of incubation.
Where [15] appears, read: 200 g/L, 24 hours of incubation.
[16] abbreviates: 200 g/L, 48 hours of incubation.
The mark [17] stands for this setting: 200 g/L, 120 hours of incubation.

Take `CCO` [Ethanol]: the “Growth response (turbidity)” value in test [1] (setting [3]) is recorded as “++”; in test [1] (setting [4]), “++”; in test [1] (setting [5]), “++”; in test [1] (0.1 g/L, 24 hours of incubation), “++”; in test [1] (0.1 g/L, 48 hours of incubation) it was “++”; in test [1] (0.1 g/L, 120 hours of incubation), “++”. The “Growth response (turbidity)” value is reported as “++” in test [1] (setting [6]); “++” in test [1] (setting [7]); “++” in test [1] (setting [8]); “++” in test [1] (1 g/L, 24 hours of incubation); “++” in test [1] (1 g/L, 48 hours of incubation); “++” in test [1] (1 g/L, 120 hours of incubation). Further, the “Growth response (turbidity)” value in test [1] (10 g/L, 24 hours of incubation) was “++”; in test [1] (10 g/L, 48 hours of incubation), “++”; in test [1] (setting [9]) it was “++”; in test [1] (20 g/L, 24 hours of incubation), “+”; in test [1] (20 g/L, 48 hours of incubation), “++”; in test [1] (setting [10]), “++”. The “Growth response (turbidity)” value in test [1] (50 g/L, 24 hours of incubation) is “−”; in test [1] (50 g/L, 48 hours of incubation), “−”; in test [1] (setting [11]), “−”.

In the case of `OCCO` [Ethylene glycol], the “Growth response (turbidity)” value was “++” in test [1] (10 g/L, 24 hours of incubation); “++” in test [1] (10 g/L, 48 hours of incubation); “++” in test [1] (setting [9]); “++” in test [1] (20 g/L, 24 hours of incubation); “++” in test [1] (20 g/L, 48 hours of incubation); “++” in test [1] (setting [10]). The “Growth response (turbidity)” value in test [1] (50 g/L, 24 hours of incubation) is given as “++”; in test [1] (50 g/L, 48 hours of incubation) it was “++”; in test [1] (setting [11]), “++”; in test [1] (setting [12]) it was “+”; in test [1] (setting [13]), “++”; in test [1] (setting [14]) it was “++”. Also, the “Growth response (turbidity)” value in test [1] (setting [15]), in test [1] (setting [16]) and in test [1] (setting [17]) was “−” throughout.

Turning to `OCC(O)CO` [Glycerol], the “Growth response (turbidity)” value in test [1] (10 g/L, 24 hours of incubation) is “++”; in test [1] (10 g/L, 48 hours of incubation), “++”; in test [1] (setting [9]) it was “++”; in test [1] (20 g/L, 24 hours of incubation), “++”; in test [1] (20 g/L, 48 hours of incubation) it was “++”; in test [1] (setting [10]), “++”. For the same compound, the “Growth response (turbidity)” value in test [1] (50 g/L, 24 hours of incubation) is on record as “++”; in test [1] (50 g/L, 48 hours of incubation) it was “++”; in test [1] (setting [11]), “++”; in test [1] (setting [12]), “++”; in test [1] (setting [13]) it was “++”; in test [1] (setting [14]) it was “++”. The “Growth response (turbidity)” value in test [1] (setting [15]), in test [1] (setting [16]) and in test [1] (setting [17]) was “−” throughout.

For `CC(O)C(=O)[O-].[Na+]` (centres unmarked) [Na lactate, sodium lactate], the “Growth response (turbidity)” value in test [1] (10 g/L, 24 hours of incubation) is “++”; in test [1] (10 g/L, 48 hours of incubation), “++”; in test [1] (setting [9]), “++”; in test [1] (20 g/L, 24 hours of incubation), “++”; in test [1] (20 g/L, 48 hours of incubation), “++”; in test [1] (setting [10]) it was “++”. The “Growth response (turbidity)” value in test [1] (50 g/L, 24 hours of incubation) is “−”; in test [1] (50 g/L, 48 hours of incubation) it was “−”; in test [1] (setting [11]), “−”; in test [1] (setting [12]), “−”; in test [1] (setting [13]) it was “−”; in test [1] (setting [14]), “−”. Further, the “Growth response (turbidity)” value in test [1] (setting [15]), in test [1] (setting [16]) and in test [1] (setting [17]) was “−” each time.

As for `[Cl-].[Na+]` [NaCl], the “change in Log cell number” value is given as −1 in test [2] (50 g/L); −3 in test [2] (80 g/L); −1 in test [2] (100 g/L); −2 in test [2] (200 g/L); −4 in test [2] (400 g/L). Also, the “Final anaerobic vial OD” value in test [2] (50 g/L) was 0.08; in test [2] (80 g/L) it was 0.11; in test [2] (100 g/L) it was 0.05; in test [2] (200 g/L), 0.03; in test [2] (400 g/L) it was 0.03.

Regarding `O=[N+]([O-])[O-].[Na+]` [NaNO3, sodium nitrate], the “Growth response (turbidity)” value is listed as “++” in test [1] (10 g/L, 24 hours of incubation); “++” in test [1] (10 g/L, 48 hours of incubation); “++” in test [1] (setting [9]); “++” in test [1] (20 g/L, 24 hours of incubation); “++” in test [1] (20 g/L, 48 hours of incubation); “++” in test [1] (setting [10]). Also, the “Growth response (turbidity)” value in test [1] (50 g/L, 24 hours of incubation) is “−”; in test [1] (50 g/L, 48 hours of incubation), “+”; in test [1] (setting [11]), “++”; in test [1] (setting [12]) it was “−”; in test [1] (setting [13]), “−”; in test [1] (setting [14]) it was “−”. For the same compound, the “Growth response (turbidity)” value in test [1] (setting [15]), in test [1] (setting [16]) and in test [1] (setting [17]) was “−” in each case. For the same compound, the “concentration at which microbial growth was inhibited” value in test [1] (aerobic growth at 30° C.) is reported as at least 100 g/L. Further, the “change in Log cell number” value is −1 in test [2] (50 g/L); 0 in test [2] (80 g/L); −2 in test [2] (100 g/L); −6 in test [2] (200 g/L); −5 in test [2] (400 g/L). Moreover, the “Final anaerobic vial OD” value in test [2] (50 g/L) worked out at 0.06; in test [2] (80 g/L), 0.03; in test [2] (100 g/L) it was 0.02; in test [2] (200 g/L), 0.03; in test [2] (400 g/L), 0.03.

`CCCCCCCCO` [Octanol]: the “Growth response (turbidity)” value in test [1] (0.001 g/L, 24 hours of incubation) is reported as “++”; in test [1] (0.001 g/L, 48 hours of incubation) it was “++”; in test [1] (0.001 g/L, 120 hours of incubation), “++”; in test [1] (0.005 g/L, 24 hours of incubation), “++”; in test [1] (0.005 g/L, 48 hours of incubation), “++”; in test [1] (0.005 g/L, 120 hours of incubation) it was “++”. Besides, the “Growth response (turbidity)” value in test [1] (0.01 g/L, 24 hours of incubation) was “++”; in test [1] (0.01 g/L, 48 hours of incubation) it was “++”; in test [1] (0.01 g/L, 120 hours of incubation) it was “++”; in test [1] (setting [3]), “++”; in test [1] (setting [4]), “++”; in test [1] (setting [5]), “++”. Besides, the “Growth response (turbidity)” value in test [1] (0.25 g/L, 24 hours of incubation) is given as “−”; in test [1] (0.25 g/L, 48 hours of incubation), “−”; in test [1] (0.25 g/L, 120 hours of incubation), “−”; in test [1] (setting [6]) it was “−”; in test [1] (setting [7]), “−”; in test [1] (setting [8]), “−”. Besides, the “change in Log cell number” value was 0 in test [2] (0.05 g/L); −1 in test [2] (0.1 g/L); 0 in test [2] (0.2 g/L); −1 in test [2] (0.25 g/L); −1 in test [2] (0.5 g/L). The “Final anaerobic vial OD” value in test [2] (0.05 g/L) is listed as 0.28; in test [2] (0.1 g/L), 0.4; in test [2] (0.2 g/L), 0.54; in test [2] (0.25 g/L), 0.4; in test [2] (0.5 g/L), 0.01. In test [2] (judged by OD600 and cell killing, Table 3), the “effectiveness of the inhibitor in words” value is reported as “ineffective except at the highest concentrations”.
